Several values for one entry are separate records, joined by “and”; a condition that tells them apart may be missing. Equal entries are not always repeated. Inconclusive results and toxic doses are left out.
Test system: CD2F1 mice, L1210 leukemia ip, survival T/C
Test: NCI In Vivo Anticancer Drug Screen. Data for tumor model L1210 Leukemia (intraperitoneal) in CD2F1 (CDF1) mice
Conditions: endpoint: mean survival time, higher = longer survival
Procedure, shortened: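 Compound-dosed mice with transplantable tumor versus matched vehicle controls; endpoint ratio T/C reported.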

SMILES: CN(C)/N=N/c1nc[nH]c1C(N)=O
- T/C (dose: 1.56 mg/kg/injection, schedule: Q03HX024 (ip), vehicle: steriod suspending solution): 105 % of control
- T/C (dose: 1.56 mg/kg/injection, schedule: Q03HX024 (oral), vehicle: steriod suspending solution): 105 % of control
- T/C (dose: 2.9 mg/kg/injection, schedule: Q01DX009 (ip), vehicle: Klucel (hydroxypropylcellulose) (HPC)): 103 % of control
- T/C (dose: 3.12 mg/kg/injection, schedule: Q03HX024 (ip), vehicle: steriod suspending solution): 115 % of control
- T/C (dose: 3.12 mg/kg/injection, schedule: Q03HX024 (oral), vehicle: steriod suspending solution): 107 % of control
- T/C (dose: 5.7 mg/kg/injection, schedule: Q01DX009 (ip), vehicle: Klucel (hydroxypropylcellulose) (HPC)): 108 % of control
- T/C (dose: 6.25 mg/kg/injection, schedule: Q03HX016 (ip), vehicle: steriod suspending solution): 107 % of control
- T/C (dose: 6.25 mg/kg/injection, schedule: Q03HX016 (oral), vehicle: steriod suspending solution): 110 % of control
- T/C (dose: 6.25 mg/kg/injection, schedule: Q03HX024 (oral), vehicle: steriod suspending solution): 104 % of control
- T/C (dose: 11.4 mg/kg/injection, schedule: Q01DX009 (ip), vehicle: Klucel (hydroxypropylcellulose) (HPC)): 104 % of control and 105 % of control
- T/C (dose: 12.5 mg/kg/injection, schedule: Q01DX001 (ip), vehicle: distilled water + Tween-80): 104 % of control and 105 % of control
- T/C (dose: 12.5 mg/kg/injection, schedule: Q03HX016 (ip), vehicle: steriod suspending solution): 109 % of control
- T/C (dose: 12.5 mg/kg/injection, schedule: Q03HX016 (oral), vehicle: steriod suspending solution): 109 % of control
- T/C (dose: 12.5 mg/kg/injection, schedule: Q03HX024 (ip), vehicle: steriod suspending solution): 116 % of control
- T/C (dose: 22.7 mg/kg/injection, schedule: Q01DX009 (ip), vehicle: Klucel (hydroxypropylcellulose) (HPC)): 115 % of control and 110 % of control
- T/C (dose: 25.0 mg/kg/injection, schedule: Q01DX001 (ip), vehicle: distilled water + Tween-80): 103 % of control and 104 % of control
- T/C (dose: 25.0 mg/kg/injection, schedule: Q01DX009 (ip), vehicle: DMSO): 110 % of control
- T/C (dose: 25.0 mg/kg/injection, schedule: Q01DX009 (ip), vehicle: saline): 117 % of control
- T/C (dose: 25.0 mg/kg/injection, schedule: Q01DX009 (ip), vehicle: water): 113 % of control
- T/C (dose: 25.0 mg/kg/injection, schedule: Q03HX016 (oral), vehicle: steriod suspending solution): 110 % of control
- T/C (dose: 25.0 mg/kg/injection, schedule: Q03HX024 (ip), vehicle: steriod suspending solution): 118 % of control
- T/C (dose: 25.0 mg/kg/injection, schedule: Q03HX024 (oral), vehicle: steriod suspending solution): 122 % of control
- T/C (dose: 25.0 mg/kg/injection, schedule: Q04DX003 (ip), vehicle: other): 110 % of control
- T/C (dose: 25.0 mg/kg/injection, schedule: Q04DX003 (ip), vehicle: water): 105 % of control
- T/C (dose: 45.5 mg/kg/injection, schedule: Q01DX009 (ip), vehicle: Klucel (hydroxypropylcellulose) (HPC)): 115 % of control and 123 % of control
- T/C (dose: 50.0 mg/kg/injection, schedule: Q01DX001 (ip), vehicle: distilled water + Tween-80): 113 % of control and 106 % of control
- T/C (dose: 50.0 mg/kg/injection, schedule: Q01DX005 (ip), vehicle: other): 117 % of control
- T/C (dose: 50.0 mg/kg/injection, schedule: Q01DX009 (ip), vehicle: DMSO): 120 % of control
- T/C (dose: 50.0 mg/kg/injection, schedule: Q01DX009 (ip), vehicle: saline): 116 % of control
- T/C (dose: 50.0 mg/kg/injection, schedule: Q01DX009 (ip), vehicle: steriod suspending solution): 115 % of control
- T/C (dose: 50.0 mg/kg/injection, schedule: Q03DX003 (ip), vehicle: saline): 110 % of control
- T/C (dose: 50.0 mg/kg/injection, schedule: Q03HX016 (ip), vehicle: steriod suspending solution): 115 % of control
- T/C (dose: 50.0 mg/kg/injection, schedule: Q03HX016 (oral), vehicle: steriod suspending solution): 105 % of control
- T/C (dose: 50.0 mg/kg/injection, schedule: Q04DX003 (ip), vehicle: Klucel (hydroxypropylcellulose) (HPC)): 103 % of control
- T/C (dose: 50.0 mg/kg/injection, schedule: Q04DX003 (ip), vehicle: other): 114 % of control
- T/C (dose: 50.0 mg/kg/injection, schedule: Q04DX003 (ip), vehicle: saline): 105 % of control
- T/C (dose: 50.0 mg/kg/injection, schedule: Q04DX003 (ip), vehicle: water): 117 % of control
- T/C (dose: 60.0 mg/kg/injection, schedule: Q04DX003 (ip), vehicle: saline): 88 % of control and 108 % of control
- T/C (dose: 67.0 mg/kg/injection, schedule: Q01DX009 (ip), vehicle: carboxymethylcellulose (CMC)): 160 % of control
- T/C (dose: 80.0 mg/kg/injection, schedule: Q04DX003 (ip), vehicle: saline): 92 % of control and 106 % of control
- T/C (dose: 91.0 mg/kg/injection, schedule: Q01DX009 (ip), vehicle: Klucel (hydroxypropylcellulose) (HPC)): 121 % of control
- T/C (dose: 97.0 mg/kg/injection, schedule: Q01DX009 (ip), vehicle: carboxymethylcellulose (CMC)): 154 % of control
- T/C (dose: 100.0 mg/kg/injection, schedule: Q01DX001 (ip), vehicle: distilled water + Tween-80): 114 % of control and 117 % of control
- T/C (dose: 100.0 mg/kg/injection, schedule: Q01DX009 (ip), vehicle: carboxymethylcellulose (CMC)): 160 % of control

Source: PubChem BioAssay AID256 (DTP/NCI, 2004)
